Data as given in patent US6972319B1, “Pituitary adenylate cyclase activating peptide (PACAP)receptor 3 (R3) agonists and their pharmacological methods of use” (priority 1999, dated 2005).
No end group written: not given here.

T1: PACAP-R2 (Homo sapiens, UniProt P32241)
T1 construct: expressed in transfected cells; host or cells: CHO cells
T1 sequence (P32241 31-457): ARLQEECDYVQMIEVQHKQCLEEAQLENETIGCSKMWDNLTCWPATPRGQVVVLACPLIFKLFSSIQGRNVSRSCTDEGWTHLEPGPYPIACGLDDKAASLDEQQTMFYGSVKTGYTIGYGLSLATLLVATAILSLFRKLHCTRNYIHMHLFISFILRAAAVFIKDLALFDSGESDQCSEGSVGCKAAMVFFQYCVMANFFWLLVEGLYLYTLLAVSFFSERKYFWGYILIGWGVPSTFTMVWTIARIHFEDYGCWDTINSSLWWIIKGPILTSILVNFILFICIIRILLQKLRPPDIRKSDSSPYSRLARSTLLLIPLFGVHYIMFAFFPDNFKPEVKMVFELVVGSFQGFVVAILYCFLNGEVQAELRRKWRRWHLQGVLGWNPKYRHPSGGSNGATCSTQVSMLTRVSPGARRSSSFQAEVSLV

T2: PACAP-R3 (Homo sapiens, UniProt P41587)
T2 sequence (P41587 24-438): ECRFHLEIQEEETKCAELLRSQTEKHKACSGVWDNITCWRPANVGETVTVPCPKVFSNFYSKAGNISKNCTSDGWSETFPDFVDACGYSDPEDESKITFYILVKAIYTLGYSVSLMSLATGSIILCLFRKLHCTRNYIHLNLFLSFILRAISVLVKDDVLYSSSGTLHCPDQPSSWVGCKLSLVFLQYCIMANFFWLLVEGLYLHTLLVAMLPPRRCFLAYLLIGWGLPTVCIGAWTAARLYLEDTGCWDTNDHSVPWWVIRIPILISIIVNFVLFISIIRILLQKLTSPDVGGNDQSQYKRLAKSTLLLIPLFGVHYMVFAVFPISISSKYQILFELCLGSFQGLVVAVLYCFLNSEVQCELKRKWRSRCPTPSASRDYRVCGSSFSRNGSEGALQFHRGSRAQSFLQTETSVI

T3: PACAP-R3 (human, UniProt P41587 24-438)
T3 sequence (looked up): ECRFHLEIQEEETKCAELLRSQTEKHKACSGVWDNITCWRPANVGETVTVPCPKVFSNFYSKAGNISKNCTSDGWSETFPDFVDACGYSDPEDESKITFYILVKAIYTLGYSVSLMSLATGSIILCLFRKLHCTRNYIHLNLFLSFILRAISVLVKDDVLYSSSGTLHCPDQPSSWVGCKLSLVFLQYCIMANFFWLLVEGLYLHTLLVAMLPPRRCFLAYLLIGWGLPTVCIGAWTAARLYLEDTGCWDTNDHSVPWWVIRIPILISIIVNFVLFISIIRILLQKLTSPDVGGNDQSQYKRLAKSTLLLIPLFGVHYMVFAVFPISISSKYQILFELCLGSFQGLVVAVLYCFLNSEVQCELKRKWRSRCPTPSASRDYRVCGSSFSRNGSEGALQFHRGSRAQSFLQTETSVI


Assays:
[1] = target: T1, PACAP-R2; assay: Cyclic AMP SPA on CHO cells transfected with PACAP-R2; assay type: cell-based; details: cAMP SPA, concentration at which 50% of maximum PACAP27 activity is achieved, NA = no detectable activities, read-out: R2 EC50
Outline: (§1)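 Potency reflects cyclic AMP accumulation, determined by SPA, after a 15 min, 37 C peptide exposure of CHO cells carrying the human receptor. Values are expressed relative to the maximal PACAP27 effect, with EC50 taken at its 50% level.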

[2] = target: T2, PACAP-R3; assay: Cyclic AMP SPA on CHO cells expressing PACAP R3; assay type: cell-based; design: expressed in transfected cells; host or cells: CHO cells (Geneticin selection); details: for EC50: cAMP SPA, CHO cells transfected with PACAP-R3, concentration at which 50% of maximum PACAP27 activity is achieved, NA = no detectable activities, read-out: R3 EC50; for R3 Selectivity: ratio of EC50 at R2 versus EC50 at R3
Outline: as §1

[3] = target: T3, PACAP-R3; assay: cell-based or functional assay

R3 EC50, nM (cAMP SPA) [3] [nM]	R3 Selectivity [3] [ratio]	Molecule	EC50 [1] [nM]	EC50 [2] [nM]	R3 Selectivity [2]
		HSDAVFTDNYTRLRKQMAAKKYLNSIKNKN [Peptide R3P164]	100	0.3	300
		HSDAVFTDNYTRLRKQVAAKKYLQSILNKRY [Peptide R3P92]	2	0.02	100
		HSDGIFTDSYSRYRKKMAVKKYLAAVL-NH2 [PAC16]	0.2	0.2	1
		HSDGIFTDSYSRYRKQMAVKKYLAKVL-NH2 [PAC25]	0.13	0.04	3
		HSDGIFTDSYSRYRKQKAVKKYLAAVL-NH2 [PAC17]	0.25	0.15	1.6
		H-HSDAVFTDNYTRLRKQMAAKKYLNSIDNKR [Peptide R3P118]	15	0.5	30
		H-HSDAVFTDNYTRLRKQMAAKKYLNSIQNKR [Peptide R3P127]	300	0.5	600
		HSDAVFTDNYTRLRKQLAAKKYLNDIKK [Peptide R3P33]	> 100	0.5	>200
		HSDAVFTDNYTRLRKQVAAKKYLQSILNK [Peptide R3P94]	9	0.09	100
		H-HSDAVFTDNYTRLRKQMAAKKYLNSIKNKD [Peptide R3P155]	40	0.4	100
		HSDAVFTDNYTRLRKQLAAKKYLNDILKGGT [Peptide R3P23]	10	0.43	23
		HSDGIFTDSYSRKRKQMAVKKYLAAVL-NH2 [PAC13]	3	0.5	6
		HSDAVFTDNYTRLRKQMARKKYLNSIKNKR [Peptide R3P110]	100	0.5	200
		HSDAVFTDNYTRLRKQMAAHKYLNSIKNKRY [Peptide R3P73]	50	0.3	170
		HSDAVFTDNYTRLRKQVAAKKYLQSIKNK [Peptide R3P86]	90	0.8	110
		HSDAVFTDNYTRLRKQMAEKKYLNSIKNKR [Peptide R3P99]	40	1	40
		HSDGIFTDSYSRYREQMAVKKYLAAVL-NH2 [PAC15]	2.4	0.2	12
		H-HSDGIFTDSYSRYRKQMAVKKYLAAVKQGGT-NH2 [Peptide R3P16]	14	10	1.4
		HSDAVFTDNYTRLRKQMAAKKYLNSIKNDR [Peptide R3P136]	20	0.3	70
		HSDAVFTDNYTRLRKQMASKKYLNSIPNRI [rR3P183]	> 150	5.4	>30
		HSDGIFTDSYSRYRKQMAVKKYLAAVK-NH2 [PAC27]	1.5	1.1	1.4
		H-HSDAVFTDNYTRLRKQMAVKKYLNSIKN [Peptide R3P42]	0.3	0.03	10
		HSDAVFTDNYTRLRKQMAAKKYLNSIQNRI [rR3P184]	10	0.37	30
		HSDAVFTDNYTRLRKQMAAKKYLNSIVNKR [Peptide R3P131]	20	0.3	70
		HSDAVFTDNYTKLRKQLAAKKYLNDILNGGT [Peptide R3P11]	10	3	3
		HSDAVFTDNYTRLRKQMAVKKYLNSIKKKRY [Peptide R3P56]	40	0.4	100

R3 EC50, nM (cAMP SPA) [3] [nM]	R3 Selectivity [3] [ratio]	Molecule	EC50 [1] [nM]	EC50 [2] [nM]	R3 Selectivity [2]
		HSDAVFTDNYTRLRKQMASKKYLNSIKNRI [rR3P178]	80	0.75	110
		HSDAVFTDNYTRLRKQVAVKKYLQSILKKR [Peptide R3P88]	0.89	0.08	12
		HSDAVFTDNYTRLRKQMAAKKYLNSIKNRI [rR3P174]	18	0.2	90
		HSDAVFTDNYTRLRKQMAAKKYLNSIKKKRY [Peptide R3P52]	> 100	0.4	>250
		HSDAVFTDNYTRLRKQMAAKKYLNSIKKKR [Peptide R3P53]	500	0.2	2500
		HSDGIFTDKYSRYRKQMAVKKYLAAVL-NH2 [PAC9]	0.9	0.7	1
		HSDAVFTENYTRLRKQMAVKKYLNSLKK-NH2 [Peptide R3P7]	2	4	0.5
		HSDGIFTDSYSRYRKQMAVKKYLKAVL-NH2 [PAC24]	0.3	0.2	1.5
		HSDAVFTDNYTRLRKQMAAKKYLNSINNKR [Peptide R3P125]	60	2	30
		H-HSDGIFTDSYSRYRKQMAVKKYKAAVL-NH2 [PAC23]	170	13	13
		HSDGIFTDSYSRYRKQMAVKKYLSAVRHGQT-NH2 [Peptide R3P15]	12	5	2
		HSDAVFTDNYTRLRKQMAAKKYLNSIKNKF [Peptide R3P157]	50	0.3	170
		HSDAVFTDNYTRLRKQMAAKKYLNSIKNHR [Peptide R3P140]	15	0.3	50
		HSDAVFTDNYTRLRKQMASKKYLNSIQNRI [rR3P188]	150	2.2	70
		HSDAVFTDNYTRLRKQMAAKKYLNSIKNKA [Peptide R3P153]	40	0.2	200
2.6	29	HSDAVFTDNYTRLRKQVAAKKYLQSIKNKRYSWCEPGWCR [R3P172]			
0.2	300	HSDAVFTDNYTRLRKQMAAKKYLNSIKNKV [R3P169]			
7	6	HSDKIFTDSYSRYRKQMAVKKYLAAVL-NH2 [PAC4]			
0.5	300	HSDAVFTDNYTRLRKQMAAKKYLNSIKNKP [R3P165]			
0.2	300	HSDAVFTDNYTRLRKQMAAKKYLNSIKNKT [R3P168]			
1		HSDAVFTDNYTRLRKQMAAKKYLNSIKNKS [R3P167]			
10	97	ESDGIFTDSYSRYRKQMAVKKYLAAVL-NH2 [PAC1]			
34		HKDGIFTDSYSRYRKQMAVKKYLAAVL-NH2 [PAC2]			
47	1	HSDGIFTKSYSRYRKQMAVKKYLAAVL-NH2 [PAC8]			
200		HSDAVFTDDYTRLRKEVAAKKYLESIKDKRY [R3P173]			
0.4		HSDAVFTDNYTRLRKQMAAKKYLNSIKNKY [R3P171]			
